Laboratory results from PMC5285354, “Cationic Net Charge and Counter Ion Type as Antimicrobial Activity Determinant Factors of Short Lipopeptides” (Frontiers in Microbiology, 2017).
In brackets after ≈: the same amount, converted by molar mass. Like-named read-outs stand apart in the source and are kept apart here. Where a SMILES comes first, the peptide text is derived from it. The star is where a group is joined. Octanoyl = CCCCCCCC(=O)*

What was measured:
Type in all cases: cell-based
[1] = test system: Aspergillus brasiliensis (ATCC 16404); settings: ATCC 16404, 48 h
Method: (§1) The minimum inhibitory concentration (MIC), minimum bactericidal concentration (MBC) and minimum fungicidal concentration (MFC) were determined according to the procedure recommended by the Clinical Laboratory Standards Institute (CLSI). The following reference strains were tested: Gram-negative E. coli (ATCC 25922), K. pneumoniae (ATCC 700603), P. vulgaris (PCM 2668), P. aeruginosa (ATCC 9027), Gram-positive S. aureus (ATCC 25923), S. epidermidis (PCM 2118), B. subtilis (ATCC 6633), E. faecalis (ATCC 29212) and fungi C. albicans (ATCC 10231), C. tropicalis (PCM 2681), and A. brasiliensis (ATCC 16404). All the microorganisms were from the Polish Collection of Microorganisms (Wroclaw, Poland). MIC was determined using a microbroth dilution method with Mueller-Hinton (MH) broth for bacteria and Sabouraud Dextrose broth for fungi (Becton Dickinson, Le Pont de Claix, France). An initial inoculum of 10^5 cfu/mL was used for bacteria and 10^3 cfu/mL for fungi. Polypropylene 96-well plates (Kartell, Noviglio, Italy) were incubated for 18 h at 37°C for bacteria and for 48 h at 25°C for the tested fungi. MIC (μg/mL) was taken as the lowest concentration of the lipopeptide, at which the observable growth was inhibited. […] The experiments were performed in triplicate on three different days.

[2] = test system: Bacillus subtilis (ATCC 6633)
Method: as §1

[3] = test system: Candida albicans (ATCC 10231); settings: ATCC 10231, 48 h
Method: as §1

[4] = test system: Candida tropicalis (PCM 2681); settings: PCM 2681, 48 h
Method: as §1

[5] = test system: Enterococcus faecalis (ATCC 29212); settings: ATCC 29212, TFA salt, triplicate; for MIC Enterococcus fecalis: Mueller-Hinton broth, 10^5 cfu/mL, 18 h 37°C; for MBC Enterococcus fecalis: subculture on Mueller-Hinton II Agar, 24 h 37°C
Method: as §1

[6] = test system: Escherichia coli (ATCC 25922); settings: ATCC 25922, TFA salt, triplicate; for MIC Escherichia coli: Mueller-Hinton broth, 10^5 cfu/mL, 18 h 37°C; for MBC Escherichia coli: subculture on Mueller-Hinton II Agar, 24 h 37°C
Method: as §1

[7] = test system: Klebsiella pneumoniae (ATCC 700603); settings: ATCC 700603, TFA salt, triplicate; for MIC Klebsiella pneumoniae: Mueller-Hinton broth, 10^5 cfu/mL, 18 h 37°C; for MBC Klebsiella pneumoniae: subculture on Mueller-Hinton II Agar, 24 h 37°C
Method: as §1

[8] = test system: Proteus vulgaris (PCM 2668); settings: PCM 2668, TFA salt, triplicate; for MIC Proteus vulgaris: Mueller-Hinton broth, 10^5 cfu/mL, 18 h 37°C; for MBC Proteus vulgaris: subculture on Mueller-Hinton II Agar, 24 h 37°C
Method: as §1

[9] = test system: Pseudomonas aeruginosa (ATCC 9027); settings: ATCC 9027, TFA salt, triplicate; for MIC Pseudomonas aeruginosa: Mueller-Hinton broth, 10^5 cfu/mL, 18 h 37°C; for MBC Pseudomonas aeruginosa: subculture on Mueller-Hinton II Agar, 24 h 37°C
Method: as §1

[10] = test system: Staphylococcus aureus (ATCC 25923); settings: ATCC 25923, TFA salt; for MBC Staphylococcus aureus: MIC wells subcultured on Mueller-Hinton II Agar, 24 h 37°C, triplicate; for MIC Staphylococcus aureus: Mueller-Hinton broth, 10^5 cfu/mL, 18 h 37°C, triplicate on three days
Method: as §1

[11] = test system: Staphylococcus epidermidis (PCM 2118)
Method: as §1

[12] = ATCC 6633, TFA salt, Mueller-Hinton broth, 10^5 cfu/mL, 18 h 37°C, triplicate
[13] = ATCC 6633, TFA salt, subculture on Mueller-Hinton II Agar, 24 h 37°C, triplicate
[14] = PCM 2118, TFA salt, Mueller-Hinton broth, 10^5 cfu/mL, 18 h 37°C, triplicate
[15] = PCM 2118, TFA salt, subculture on Mueller-Hinton II Agar, 24 h 37°C, triplicate

Row | SMILES | MIC Aspergillus brasiliensis [1] | MIC Bacillus subtillis [2, 12] | MIC Candida albicans [3] | MIC Candida tropicalis [4] | MIC Enterococcus fecalis [5] | MIC Escherichia coli [6] | MIC Klebsiella pneumoniae [7] | MIC Proteus vulgaris [8] | MIC Pseudomonas aeruginosa [9] | MIC Staphylococcus aureus [10] | MFC Aspergillus brasiliensis [1] | MBC Bacillus subtillis [2, 13] | MFC Candida albicans [3] | MFC Candida tropicalis [4] | MBC Enterococcus fecalis [5] | MBC Escherichia coli [6] | MBC Klebsiella pneumoniae [7] | MBC Proteus vulgaris [8] | MBC Pseudomonas aeruginosa [9] | MBC Staphylococcus aureus [10] | further results
1 | CCCCCCCC(=O)N[C@@H](CCCCN)C(=O)NCC(=O)N[C@@H](CCCCN)C(N)=O [C8-KGK-NH2] (Octanoyl-Lys-Gly-Lys-NH2) | 2000 µg/mL (≈ 4.38 mM) |  | 2000 µg/mL (≈ 4.38 mM) | 2000 µg/mL (≈ 4.38 mM) | >2000 µg/mL | >2000 µg/mL | >2000 µg/mL | >2000 µg/mL | >2000 µg/mL | >2000 µg/mL | 2000 µg/mL (≈ 4.38 mM) |  | 2000 µg/mL (≈ 4.38 mM) | 2000 µg/mL (≈ 4.38 mM) | >2000 µg/mL | >2000 µg/mL | >2000 µg/mL | >2000 µg/mL | >2000 µg/mL | >2000 µg/mL | MIC Bacillus subtillis ([2]; ATCC 6633, 18 h): 512 µg/mL (≈ 1.12 mM); MBC Bacillus subtillis ([2]; ATCC 6633, 24 h): 1000 µg/mL (≈ 2.19 mM); MIC Staphylococcus epidermidis ([11]; PCM 2118, 18 h): 256 µg/mL (≈ 0.561 mM); MBC Staphylococcus epidermidis ([11]; PCM 2118, 24 h): 1000 µg/mL (≈ 2.19 mM)
2 | CCCCCCCC(=O)N[C@@H](CCCCN)C(=O)N[C@@H](CCCCN)C(N)=O [C8-KK-NH2] | 1000 µg/mL (≈ 2.5 mM) | >1000 µg/mL | 1000 µg/mL (≈ 2.5 mM) | 1000 µg/mL (≈ 2.5 mM) | >1000 µg/mL | >1000 µg/mL | >1000 µg/mL | >2000 µg/mL | >2000 µg/mL | >1000 µg/mL | 1000 µg/mL (≈ 2.5 mM) | >1000 µg/mL | 1000 µg/mL (≈ 2.5 mM) | 1000 µg/mL (≈ 2.5 mM) | >1000 µg/mL | >1000 µg/mL | >1000 µg/mL | >2000 µg/mL | >2000 µg/mL | >1000 µg/mL | MIC Staphylococcus epidermidis [11, 14]: >1000 µg/mL; MBC Staphylococcus epidermidis [11, 15]: >1000 µg/mL
3 | CCCCCCCC(=O)N[C@@H](CCCCN)C(=O)N[C@@H](CCCCN)C(=O)N[C@@H](CCCCN)C(N)=O [C8-KKK-NH2] | 2000 µg/mL (≈ 3.79 mM) |  | 2000 µg/mL (≈ 3.79 mM) | 2000 µg/mL (≈ 3.79 mM) | >2000 µg/mL | >2000 µg/mL | >2000 µg/mL | >2000 µg/mL | >2000 µg/mL | >2000 µg/mL | 2000 µg/mL (≈ 3.79 mM) |  | 2000 µg/mL (≈ 3.79 mM) | 2000 µg/mL (≈ 3.79 mM) | >2000 µg/mL | >2000 µg/mL | >2000 µg/mL | >2000 µg/mL | >2000 µg/mL | >2000 µg/mL | MIC Bacillus subtillis ([2]; ATCC 6633, 18 h): 1000 µg/mL (≈ 1.89 mM); MBC Bacillus subtillis ([2]; ATCC 6633, 24 h): 1000 µg/mL (≈ 1.89 mM); MIC Staphylococcus epidermidis ([11]; PCM 2118, 18 h): 256 µg/mL (≈ 0.485 mM); MBC Staphylococcus epidermidis ([11]; PCM 2118, 24 h): 512 µg/mL (≈ 0.97 mM)

More lines, main results first:

Row | MIC Aspergillus brasiliensis [1] | MIC Bacillus subtillis [2, 12] | MIC Candida albicans [3] | MIC Candida tropicalis [4] | MIC Enterococcus fecalis [5] | MIC Escherichia coli [6] | MIC Klebsiella pneumoniae [7] | MIC Proteus vulgaris [8] | MIC Pseudomonas aeruginosa [9] | MIC Staphylococcus aureus [10] | SMILES | MFC Aspergillus brasiliensis [1] | MBC Bacillus subtillis [2, 13] | MFC Candida albicans [3] | MFC Candida tropicalis [4] | MBC Enterococcus fecalis [5] | MBC Escherichia coli [6] | MBC Klebsiella pneumoniae [7] | MBC Proteus vulgaris [8] | MBC Pseudomonas aeruginosa [9] | MBC Staphylococcus aureus [10] | further results
4 | 1000 µg/mL (≈ 3.68 mM) | >1000 µg/mL | 1000 µg/mL (≈ 3.68 mM) | 1000 µg/mL (≈ 3.68 mM) | >1000 µg/mL | >1000 µg/mL | >1000 µg/mL | >2000 µg/mL | >2000 µg/mL | >1000 µg/mL | CCCCCCCC(=O)N[C@@H](CCCCN)C(N)=O [C8-K-NH2] | 1000 µg/mL (≈ 3.68 mM) | >1000 µg/mL | 1000 µg/mL (≈ 3.68 mM) | 2000 µg/mL (≈ 7.37 mM) | >1000 µg/mL | >1000 µg/mL | >1000 µg/mL | >2000 µg/mL | >2000 µg/mL | >1000 µg/mL | MIC Staphylococcus epidermidis [11, 14]: >1000 µg/mL; MBC Staphylococcus epidermidis [11, 15]: >1000 µg/mL
5 | 2000 µg/mL (≈ 6.09 mM) | >2000 µg/mL | 2000 µg/mL (≈ 6.09 mM) | 2000 µg/mL (≈ 6.09 mM) | >2000 µg/mL | >2000 µg/mL | >2000 µg/mL | >2000 µg/mL | >2000 µg/mL | >2000 µg/mL | CCCCCCCC(=O)N[C@@H](CCCCN)C(=O)NCC(N)=O [C8-KG-NH2] (Octanoyl-Lys-Gly-NH2) | 2000 µg/mL (≈ 6.09 mM) | >2000 µg/mL | 2000 µg/mL (≈ 6.09 mM) | 2000 µg/mL (≈ 6.09 mM) | >2000 µg/mL | >2000 µg/mL | >2000 µg/mL | >2000 µg/mL | >2000 µg/mL | >2000 µg/mL | MIC Staphylococcus epidermidis [11, 14]: >2000 µg/mL; MBC Staphylococcus epidermidis [11, 15]: >2000 µg/mL
6 | 2000 µg/mL (≈ 3.89 mM) | >2000 µg/mL | 2000 µg/mL (≈ 3.89 mM) | 2000 µg/mL (≈ 3.89 mM) | >2000 µg/mL | >2000 µg/mL | >2000 µg/mL | >2000 µg/mL | >2000 µg/mL | >2000 µg/mL | CCCCCCCC(=O)N[C@@H](CCCCN)C(=O)NCC(=O)N[C@@H](CCCCN)C(=O)NCC(N)=O [C8-KGKG-NH2] (Octanoyl-KGKG-NH2) | 2000 µg/mL (≈ 3.89 mM) | >2000 µg/mL | 2000 µg/mL (≈ 3.89 mM) | 2000 µg/mL (≈ 3.89 mM) | >2000 µg/mL | >2000 µg/mL | >2000 µg/mL | >2000 µg/mL | >2000 µg/mL | >2000 µg/mL | MIC Staphylococcus epidermidis [11, 14]: >2000 µg/mL; MBC Staphylococcus epidermidis [11, 15]: >2000 µg/mL
